Test results as given in patent publication US20040024293A1, “Methods and systems for analyzing complex biological systems” (priority 2001, published 2004).
“Also recorded” adds a separate entry of the source.

Assays:
Arabidopsis plants = conditions: nitrate addition to N-starved Arabidopsis plants; cited from earlier work
[1] = test system: Saccharomyces cerevisiae wild type strain BY4743; test: Combined gene expression and metabolite data mapped to KEGG reactions and pathways (AF1); assay type: cell-based; conditions: yeast
Description: In AF1, two different technologies were utilized: gene expression analysis (for examination of mRNA expression) and metabolite analysis. […] As noted previously, existing metabolic databases may be helpful in practicing the methods and systems of the present invention, but many databases include limitations that make their use in data analysis and pathway mapping less than straightforward. […] This caveat to KEGG makes it difficult to pinpoint the correct pathway when attempting to link a gene to a specific pathway. […] The pathway score indicates how meaningful the mapping is, or how likely it is to be correctly indicative of the pathway involved in the perturbation under examination. The method provides a pathway score based on perturbation levels of genes. and/or compounds and the information content of each gene and/or compound in the pathway, i.e., a pathway score indicates the extent to which other pathways are mapped to a gene/compound. For example, imagine that two genes are perturbed in a particular experiment. One gene maps to only one pathway, giving a high degree of probability that the perturbed pathway is the one identified in the mapping. The second gene maps to three pathways. In the later example, there is only one-third the probability that the pathway identified in the mapping is the one perturbed. The present invention provides a method for calculating the pathway scores, so that more weight is given to a score of a gene or compound that maps to only one pathway than to a score of a gene or compound that maps to multiple pathways. […] Where n=the total number of genes in the pathway; ipath—count=the number of pathways containing a gene; and j=the number of genes in the pathway that are perturbed. Another factor to be considered when weighting a pathway score is the degree of perturbation. Degree of perturbation can be calculated, for example, based on a number of standard deviations from a norm, and included in an equation such as the one shown above, so that not only the number of pathways is taken into account, but also accounts for the amount of gene transcript or compound present as compared to a control. Compounds were also linked to pathways using the KEGG database. KEGG links 676 compounds measured in AF1 to a total of 92 pathways. Of the 676 compounds under consideration, 77 were detected in the AF1 samples. […] The multiple mapping feature of KEGG makes it difficult to pinpoint the correct pathway when trying to link a compound to a specific pathway. […] A pathway score calculation is applied to the compounds to account for both information content (number of pathways a compound maps to) and perturbation level. […]

Arabidopsis thaliana [2] = test: Biochemical (metabolite) profiling by LC-MS and GC-MS of sprayed Arabidopsis (MOA1); assay type: in vivo
Arabidopsis thaliana [3] = test: Gene expression profiling (22,000 gene array) of sprayed Arabidopsis (MOA1); assay type: in vivo; conditions: for No. of Lethal Genes Altered / gene expression perturbations compared to the other treatments: 1 hr
[4] = test system: Arabidopsis thaliana plants; test: Phenotypic analysis of herbicide-treated Arabidopsis plants (SOA1); assay type: in vivo; conditions: for leafCurling (Dev.) / leafTwisting (Dev.) / leafWidth (Dev.) / matureLeafAnthocyanins (Dev.) / matureLeafChlorosis (Dev.) / matureLeafNecrosis (Dev.) / newLeafAnthocyanins (Dev.) / newLeafChlorosis (Dev.) / newLeafNecrosis (Dev.) / pointedLeaves (Dev.) / tMic (Dev.): SOA1, numeric value standardized to mock treated; for Symptom Class: three-week-old Arabidopsis plants treated with herbicide, phenotypes of FIG. 12
Magnaporthe grisea = assay type: cell-based
[5] = concentrations insufficient to inhibit growth

SMILES: O=[N+]([O-])O [Nitrate]
- Nitrate Regulation of Glutamate synthetase gene (Arabidopsis plants): ↑
- Nitrate Regulation of Glutamine synthetase (2) genes (Arabidopsis plants): ↑
- Nitrate Regulation of MADs Box (2) genes (Arabidopsis plants): ↓
- Nitrate Regulation of MYB transcription factor gene (Arabidopsis plants): ↑
- Nitrate Regulation of Malate Dehydrogenase gene (Arabidopsis plants): ↑
- Nitrate Regulation of Nitrate transporter gene (Arabidopsis plants): ↑
- Nitrate Regulation of Phosphate transporter gene (Arabidopsis plants): ↑
- Nitrate Regulation of Transaldolase gene (Arabidopsis plants): ↑
- Nitrate Regulation of Transketolase gene (Arabidopsis plants): ↑

SMILES: CC(=O)N1CCN(c2ccc(OCC3COC(Cn4ccnc4)(c4ccc(Cl)cc4Cl)O3)cc2)CC1 (stereo not shown) [Ketoconazole]
- # Reactions (Number Of Pathways Having at Least One Enzyme and One Compound Perturbed) [1]: 24

SMILES: CP(=O)(O)CCC(N)C(=O)O (stereo not shown) [Glufosinate]
- stress-related metabolites observed (Arabidopsis thaliana [2]; in vivo): Only a few, if any
- No. of Lethal Genes Altered (Arabidopsis thaliana [3]): 10
- Regulated Genes Following Herbicide Treatment: Down (Arabidopsis thaliana [3]; in vivo): 54
- leafCurling (Dev.) [4]: 2
- leafTwisting (Dev.) [4]: 1
- leafWidth (Dev.) [4]: −2
- matureLeafAnthocyanins (Dev.) [4]: 0
- matureLeafChlorosis (Dev.) [4]: 3
- matureLeafNecrosis (Dev.) [4]: 0
- newLeafAnthocyanins (Dev.) [4]: 0
- newLeafChlorosis (Dev.) [4]: 3
- newLeafNecrosis (Dev.) [4]: 0
- pointedLeaves (Dev.) [4]: 1
- tMic (Dev.) [4]: 1
- Symptom Class [4]: 3
- nitrogen sources M. grisea is able to utilize in the presence of the compound (Magnaporthe grisea): only able to utilize glutamine and glutamate

SMILES: COc1nc(C)nc(NC(=O)NS(=O)(=O)c2ccccc2Cl)n1 [Chlorsulfuron]
- No. of Lethal Genes Altered (Arabidopsis thaliana [3]): 8

SMILES: C[n+]1ccc(-c2cc[n+](C)cc2)cc1 [Paraquat]
- Symptom Class [4]: 7

SMILES: CS(=O)(=O)c1cc(C(F)(F)F)ccc1C(=O)c1cnoc1C1CC1 [Isoxaflutole]
- tyrosine and phenylalanine relative to the control (Arabidopsis thaliana [2]; Arabidopsis, after one hour): up-regulated; also recorded: began to accumulate
- Alpha-tocopherol levels relative to the control (Arabidopsis thaliana [2]; Arabidopsis, early time points): not significantly changed
- No. of Lethal Genes Altered (Arabidopsis thaliana [3]): 15
- M. grisea growth in minimal media (Magnaporthe grisea; [5]): unaffected
- M. grisea growth in minimal plus tyrosine media (Magnaporthe grisea; [5]): inhibited

SMILES: COC(=O)NS(=O)(=O)c1ccc(N)cc1 [Asulam]
- No. of Lethal Genes Altered (Arabidopsis thaliana [3]): 5
- gene expression perturbations compared to the other treatments (Arabidopsis thaliana [3]): fewest gene expression perturbations

SMILES: OC(Cn1cncn1)(Cn1cncn1)c1ccc(F)cc1F [Fluconazole]
- # Reactions (Number Of Pathways Having at Least One Enzyme and One Compound Perturbed) [1]: 15

SMILES: O=C(O)COc1ccc(Cl)cc1Cl [2,4-D]
- leafCurling (Dev.) [4]: 1
- leafTwisting (Dev.) [4]: 2
- leafWidth (Dev.) [4]: −1
- matureLeafAnthocyanins (Dev.) [4]: 1
- matureLeafChlorosis (Dev.) [4]: 2
- matureLeafNecrosis (Dev.) [4]: 0
- newLeafAnthocyanins (Dev.) [4]: 0
- newLeafChlorosis (Dev.) [4]: 1
- newLeafNecrosis (Dev.) [4]: 0
- pointedLeaves (Dev.) [4]: 0
- tMic (Dev.) [4]: 2
- Symptom Class [4]: 5

SMILES: CC(C)C1(C)N=C(c2ncccc2C(=O)O)NC1=O (stereo not shown) [Imazapyr]
- stress-related metabolites observed (Arabidopsis thaliana [2]; MOA1, 20 min and 1 hr): Only a few, if any

SMILES: O=C(O)c1ccccc1C(=O)Nc1cccc2ccccc12 [Naptalam]
- No. of Lethal Genes Altered (Arabidopsis thaliana [3]): 3
- gene expression perturbations compared to the other treatments (Arabidopsis thaliana [3]): fewest gene expression perturbations
- Regulated Genes Following Herbicide Treatment: Down (Arabidopsis thaliana [3]; in vivo): 47
- Regulated Genes Following Herbicide Treatment: Up (Arabidopsis thaliana [3]; in vivo): 50

SMILES: CNc1cnn(-c2cccc(C(F)(F)F)c2)c(=O)c1Cl [Norfluazon, Norflurazon]
- stress-related metabolites observed (Arabidopsis thaliana [2]; MOA1, 20 min and 1 hr): Only a few, if any

SMILES: c1cc[n+]2c(c1)-c1cccc[n+]1CC2 [Diquat]
- leafCurling (Dev.) [4]: 2
- leafTwisting (Dev.) [4]: 0
- leafWidth (Dev.) [4]: −2
- matureLeafAnthocyanins (Dev.) [4]: 0
- matureLeafChlorosis (Dev.) [4]: 1
- matureLeafNecrosis (Dev.) [4]: 4
- newLeafAnthocyanins (Dev.) [4]: 0
- newLeafChlorosis (Dev.) [4]: 1
- newLeafNecrosis (Dev.) [4]: 4
- pointedLeaves (Dev.) [4]: 1
- tMic (Dev.) [4]: 2
- Symptom Class [4]: 7

SMILES: O=C(O)CNCP(=O)(O)O [Glyphosate]
- tyrosine (metabolite downstream from the SOA) relative to the control (Arabidopsis thaliana [2]; in vivo): decreased
- leafCurling (Dev.) [4]: 0
- leafTwisting (Dev.) [4]: 0
- leafWidth (Dev.) [4]: 0
- matureLeafAnthocyanins (Dev.) [4]: 3
- matureLeafChlorosis (Dev.) [4]: 1
- matureLeafNecrosis (Dev.) [4]: 3
- newLeafAnthocyanins (Dev.) [4]: 1
- newLeafChlorosis (Dev.) [4]: 2
- newLeafNecrosis (Dev.) [4]: 0
- pointedLeaves (Dev.) [4]: 1
- tMic (Dev.) [4]: 2
- Symptom Class [4]: 4
- growth results of Unknown 4 and glyphosate compared (Magnaporthe grisea): nearly identical
- Growth inhibition of M. grisea on inclusion of aromatic amino acids to the media (Magnaporthe grisea; 1.0 mg/ml): remediated
- Growth of M. grisea with ammonium or glutamine as nitrogen source (Magnaporthe grisea; Tier 4): Little growth defect

SMILES: CN(C)C(=O)Nc1ccc(Cl)c(Cl)c1 [Diuron]
- leafCurling (Dev.) [4]: 1
- leafTwisting (Dev.) [4]: 0
- leafWidth (Dev.) [4]: −2
- matureLeafAnthocyanins (Dev.) [4]: 0
- matureLeafChlorosis (Dev.) [4]: 2
- matureLeafNecrosis (Dev.) [4]: 4
- newLeafAnthocyanins (Dev.) [4]: 0
- newLeafChlorosis (Dev.) [4]: 2
- newLeafNecrosis (Dev.) [4]: 4
- pointedLeaves (Dev.) [4]: 1
- tMic (Dev.) [4]: 1
- Symptom Class [4]: 7
